Results on 19 compounds are retold here after patent US10975083B2, “Blood-brain barrier-penetrant dopamine-β-hydroxylase inhibitors” (BIAL—PORTELA & Cᵃ, S.A., priority 2016, dated 2021).

Where two headings read alike, the source gives them in different places.

A short description of data set [1]: in vitro. As to conditions: dog, MDCK, pH 7.4.
The target of data set [2] is T1, DβH (Homo sapiens, UniProt P09172).
T1 construct: reaction mixture (total volume 500 μl) contained: cellular homogenate (75 μg total protein); host or cells: SK-N-SH cell homogenate
T1 sequence (P09172 1-617): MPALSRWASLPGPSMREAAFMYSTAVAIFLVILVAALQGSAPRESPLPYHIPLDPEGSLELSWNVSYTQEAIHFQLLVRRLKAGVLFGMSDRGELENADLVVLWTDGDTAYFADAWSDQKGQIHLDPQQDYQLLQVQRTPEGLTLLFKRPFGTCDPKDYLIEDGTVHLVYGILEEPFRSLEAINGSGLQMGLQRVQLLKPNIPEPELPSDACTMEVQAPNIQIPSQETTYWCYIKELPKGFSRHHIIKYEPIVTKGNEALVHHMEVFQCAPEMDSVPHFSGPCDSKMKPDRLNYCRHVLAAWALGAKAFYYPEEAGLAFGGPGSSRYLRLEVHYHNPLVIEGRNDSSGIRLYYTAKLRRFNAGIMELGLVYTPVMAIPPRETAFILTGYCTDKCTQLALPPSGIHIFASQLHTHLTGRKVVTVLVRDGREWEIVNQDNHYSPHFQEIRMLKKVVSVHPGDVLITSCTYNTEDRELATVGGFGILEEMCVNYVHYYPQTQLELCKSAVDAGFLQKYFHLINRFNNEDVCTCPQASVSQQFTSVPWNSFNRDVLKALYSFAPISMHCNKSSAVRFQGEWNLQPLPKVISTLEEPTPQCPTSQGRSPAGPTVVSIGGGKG
The data set is described as follows: DβH inhibition cell assay (SK-N-SH cellular homogenates, tyramine to octopamine). Format: biochemical. The conditions noted are these: for remaining activity at 1 µM: read-out: DβH activity in % of Ctrl (1 μM); for remaining activity at 0.1 µM: inhibitor 0.1 μM, read-out: DβH activity in % of Ctrl (0.1 μM); for remaining activity at 10 µM: inhibitor 10 μM, read-out: DβH activity in % of Ctrl (10 μM).

[3] abbreviates: inhibitor 1 μM, SK-N-SH cell homogenate.

What is called Papp A→B is how fast a substance crosses the layer from the apical side. Read a low Papp A→B as poor permeation. Regarding `Fc1ccc(C2Cc3c[nH]c(=S)n3C2)c(F)c1` (stereo not shown) [Example 51, 6-(2,4-Difluorophenyl)-6,7-dihydro-2H-pyrrolo[1,2-c]imidazole-3(5H)-thione], the apparent permeability from apical to basolateral (Papp A→B) at 30 min, 50 μM in data set [1] was 100 ×10⁻⁶ cm/s. The remaining activity at 1 µM in data set [2] was determined as 54.4%.
In turn, `NC(=S)N1CCC(c2cccs2)C1` (stereo not shown) [Example 2, 3-(thiophen-2-yl)pyrrolidine-1-carbothioamide] had a Papp A→B at 30 min, 50 μM in data set [1] of 126 ×10⁻⁶ cm/s. In addition, in data set [2] (SK-N-SH cell homogenate), the remaining activity at 0.1 µM came out at 54.9% and the remaining activity at 10 µM is 0%.
`NC(=S)N1CC2CC2(c2ccc(F)cc2F)C1` (stereo not shown) [Example 37, 1-(2,4-difluorophenyl)-3-azabicyclo[3.1.0]hexane-3-carbothioamide] showed a Papp A→B at 30 min, 50 μM in data set [1] of 79.4 ×10⁻⁶ cm/s. Moreover, the remaining activity at 0.1 µM in data set [2] (SK-N-SH cell homogenate) was found to be 59.7%. Further, the remaining activity at 1 µM in data set [2] (setting [3]) was 2.4%.
In the same order, the values of `CNC(=S)N1CCC(c2cc(F)cc(F)c2)C1` (stereo not shown) [Example 32, 3-(3,5-difluorophenyl)-N-methylpyrrolidine-1-carbothioamide] are 100 ×10⁻⁶ cm/s, 57.3% and 4.7%.
For `NC(=S)N1CC2CC2(c2cc(F)cc(F)c2)C1` (stereo not shown) [Example 34, 1-(3,5-difluorophenyl)-3-azabicyclo[3.1.0]hexane-3-carbothioamide] the same measures were 63.1 ×10⁻⁶ cm/s, 12.3% and 0%.
Take `NC(=S)N1CCC(c2ccccc2)C1` (stereo not shown) [Example 1, 3-Phenylpyrrolidine-1-carbothioamide]: the Papp A→B at 30 min, 50 μM in data set [1] is 63.1 ×10⁻⁶ cm/s. Also, in data set [2] (SK-N-SH cell homogenate), the remaining activity at 0.1 µM came to 75.6% and the remaining activity at 10 µM was 4%. The remaining activity at 1 µM in data set [2] (setting [3]) was found to be 42.4%.
In the case of `NC(=S)N1CC[C@H](c2cc(F)cc(F)c2)C1` [Example 26, (R)-3-(3,5-difluorophenyl)pyrrolidine-1-carbothioamide], the Papp A→B at 30 min, 50 μM in data set [1] was 100 ×10⁻⁶ cm/s. For the same compound, the remaining activity at 1 µM in data set [2] (setting [3]) is 21.4%.
In data set [1], `NC(=S)N1CCC(c2ccsc2)C1` (stereo not shown) [Example 15, 3-(thiophen-3-yl)pyrrolidine-1-carbothioamide] gave a Papp A→B at 30 min, 50 μM of 79.4 ×10⁻⁶ cm/s. The remaining activity at 0.1 µM in data set [2] (SK-N-SH cell homogenate) is 50.1%. The remaining activity at 1 µM in data set [2] (setting [3]) turned out to be 9.3%.
In data set [1], `Cc1ccc(C2CCN(C(N)=S)C2)s1` (stereo not shown) [Example 10, 3-(5-methylthiophen-2-yl)pyrrolidine-1-carbothioamide] gave a Papp A→B at 30 min, 50 μM of 126 ×10⁻⁶ cm/s. Also, in data set [2] (SK-N-SH cell homogenate), the remaining activity at 0.1 µM came to 54.9% and the remaining activity at 10 µM stood at 0%. The remaining activity at 1 µM in data set [2] (setting [3]) is 2.7%.
As for `NC(=S)N1CC2CC2(c2ccccc2)C1` (stereo not shown) [Example 8, 1-phenyl-3-azabicyclo[3.1.0]hexane-3-carbothioamide], the Papp A→B at 30 min, 50 μM in data set [1] was 126 ×10⁻⁶ cm/s. The remaining activity at 1 µM in data set [2] (setting [3]) worked out at 14.5%. For the same compound, the remaining activity at 10 µM in data set [2] (SK-N-SH cell homogenate) is 2.2%.
Turning to `NC(=S)N1CCC(c2cc(F)cc(F)c2)C1` (stereo not shown) [Example 12, 3-(3,5-Difluorophenyl)pyrrolidine-1-carbothioamide], in data set [1], the Papp A→B at 30 min, 50 μM was 79.4 ×10⁻⁶ cm/s. In addition, in data set [2] (SK-N-SH cell homogenate), the remaining activity at 0.1 µM came out at 63% and the remaining activity at 10 µM came to 0%. Besides, the remaining activity at 1 µM in data set [2] (setting [3]) was determined as 11.5%.
In data set [1], `CNC(=S)N1CC2(c3cc(F)cc(F)c3)CC2C1=O` (stereo not shown) [Example 43, 1-(3,5-Difluorophenyl)-N-methyl-4-oxo-3-azabicyclo[3.1.0]hexane-3-carbothioamide] had a Papp A→B at 30 min, 50 μM of 200 ×10⁻⁶ cm/s. Moreover, the remaining activity at 0.1 µM in data set [2] (SK-N-SH cell homogenate) is 43.6%. For the same compound, the remaining activity at 1 µM in data set [2] (setting [3]) is 0%.
In the same order, the values of `Fc1ccc(F)c([C@]23C[C@H]2c2c[nH]c(=S)n2C3)c1` [Example 56, (5aS,6aR)-5a-(2,5-difluorophenyl)-5,5a,6,6a-tetrahydrocyclopropa[3,4]pyrrolo[1,2-c]imidazole-3(2H)-thione] are 15.8 ×10⁻⁶ cm/s, 41.7% and 7.8%.
Consider `NC(=S)N1CC[C@@H](c2cc(F)cc(F)c2)C1` [Example 25, (S)-3-(3,5-difluorophenyl)pyrrolidine-1-carbothioamide], for which the Papp A→B at 30 min, 50 μM in data set [1] is 100 ×10⁻⁶ cm/s. For the same compound, the remaining activity at 0.1 µM in data set [2] (SK-N-SH cell homogenate) came to 46.1%. For the same compound, the remaining activity at 1 µM in data set [2] (setting [3]) was determined as 6.7%.
Consider `Fc1ccc(F)c(C2Cc3c[nH]c(=S)n3C2)c1` (stereo not shown) [Example 52, 6-(2,5-difluorophenyl)-6,7-dihydro-2H-pyrrolo[1,2-c]imidazole-3(5H)-thione], for which the Papp A→B at 30 min, 50 μM in data set [1] was 100 ×10⁻⁶ cm/s. For the same compound, the remaining activity at 1 µM in data set [2] (setting [3]) worked out at 27.3%.
Compound `Fc1cc(F)cc([C@@H]2Cc3c[nH]c(=S)n3C2)c1` [Example 59, (S)-6-(3,5-difluorophenyl)-6,7-dihydro-2H-pyrrolo[1,2-c]imidazole-3(5H)-thione] had a Papp A→B at 30 min, 50 μM in data set [1] of 251 ×10⁻⁶ cm/s. Moreover, the remaining activity at 0.1 µM in data set [2] (SK-N-SH cell homogenate) stood at 100%. For the same compound, the remaining activity at 1 µM in data set [2] (setting [3]) worked out at 27.8%.
`NC(=S)N1CCC(C2CCCCC2)C1` (stereo not shown) [Example 9, 3-cyclohexylpyrrolidine-1-carbothioamide] showed an apparent permeability from apical to basolateral (Papp A→B) at 30 min, 50 μM in data set [1] of 251 ×10⁻⁶ cm/s. The remaining activity at 1 µM in data set [2] (setting [3]) is 30.9%. Besides, the remaining activity at 10 µM in data set [2] (SK-N-SH cell homogenate) was found to be 5.3%.
On to `Fc1cc(F)cc([C@]23C[C@H]2c2c[nH]c(=S)n2C3)c1` [Example 54, (5aS,6aR)-5a-(3,5-difluorophenyl)-5,5a,6,6a-tetrahydrocyclopropa[3,4]pyrrolo[1,2-c]imidazole-3(2H)-thione], for which the Papp A→B at 30 min, 50 μM in data set [1] is 25.1 ×10⁻⁶ cm/s. Besides, in data set [2] (SK-N-SH cell homogenate), the remaining activity at 0.1 µM is 44.3%. For the same compound, the remaining activity at 1 µM in data set [2] (setting [3]) worked out at 8.2%.
In data set [1], `Fc1cc(F)cc(C2Cc3c[nH]c(=S)n3C2)c1` (stereo not shown) [Example 50, 6-(3,5-difluorophenyl)-6,7-dihydro-2H-pyrrolo[1,2-c]imidazole-3(5H)-thione] had a Papp A→B at 30 min, 50 μM of 126 ×10⁻⁶ cm/s. In addition, in data set [2] (SK-N-SH cell homogenate), the remaining activity at 0.1 µM is 89.3% and the remaining activity at 10 µM was found to be 6.8%. Besides, the remaining activity at 1 µM in data set [2] (setting [3]) came out at 36.6%.
